What follows are compounds tested on C57BL/6 mice (assay: In vivo expression level of Luciferase-mRNA delivered by intravenous injection (bioluminescence imaging)). Conditions: mRNA-loaded nanoparticles, compounds of Example 1; intravenous (tail vein), 5 μg Luciferase-mRNA, 6 hours.
Protocol: Luciferase-mRNA was used as an mRNA model; and the cationic lipid analogues of Examples 1-5 were used to prepare drug-loaded nanoparticles according to the method of Example 6.
200 μL of nanoparticles containing 5 μg Luciferase-mRNA or the drug-loaded nanoparticles prepared above were injected into tail veins of 6-8 week-old C57BL/6 mice, and 200 μL of 1×PBS solution containing 3 mg D-Luciferin potassium salt was intraperitoneally injected into the mice 6 hours later. After waiting for 10 minutes, an in vivo expression level of the mRNA was evaluated by bioluminescence imaging.

In order of falling “Fluorescence intensity of liver” value:
1. CC/C=C\C/C=C\C/C=C\CCCCCCCC(=O)N(CCN(C)C)C(C(=O)NCCCCCCCCCCCCCCCCCC)C(C)C (stereo not shown) [A1I18R1C18-3]  1.88E+06
2. CCCCCCCCCCCCC#CC#CCCCCCCCCC(=O)N(CCN(C)C)C(C(=O)NCCCCCCCCCCCCCCCCCC)C(C)C (stereo not shown) [A1I18R1C23]  9.51E+05
3. CCCCCCCC/C=C\CCCCCCCC(=O)N(CCN(C)C)C(C(=O)NCCCCCCCCCCCCCCCCCC)C(C)C (stereo not shown) [A1I18R1C18-1]  5.08E+05
4. CCCCCCCCCCCCC#CC#CCCCCCCCCC(=O)N(CCCN(C)C)C(C(=O)NCCCCCCCCCCCCCCCCCC)C(C)C (stereo not shown) [A1I18R2C23]  2.70E+05
5. CCCCC/C=C\C/C=C\CCCCCCCC(=O)N(CCN(C)C)C(C(=O)NCCCCCCCCCCCCCCCCCC)C(C)C (stereo not shown) [A1I18R1C18-2]  2.27E+05
6. CCCCC/C=C\C/C=C\CCCCCCCC(=O)N(CCCN(CC)CC)C(C(=O)NCCCCCCCCCCCCCCCCCC)C(C)C (stereo not shown) [A1I18R3C18-2]  1.48E+05
7. CCCCCCCCCCCCC#CC#CCCCCCCCCC(=O)N(CCCN(CC)CC)C(C(=O)NCCCCCCCCCCCCCCCCCC)C(C)C (stereo not shown) [A1I18R3C23]  7.67E+04
8. CC/C=C\C/C=C\C/C=C\CCCCCCCC(=O)N(CCCN(C)C)C(C(=O)NCCCCCCCCCCCCCCCCCC)C(C)C (stereo not shown) [A1I18R2C18-3]  6.77E+04
9. CCCCCCCC/C=C\CCCCCCCC(=O)N(CCCN(C)C)C(C(=O)NCCCCCCCCCCCCCCCCCC)C(C)C (stereo not shown) [A1I18R2C18-1]  2.63E+04
10. CC/C=C\C/C=C\C/C=C\CCCCCCCC(=O)N(CCCN(CC)CC)C(C(=O)NCCCCCCCCCCCCCCCCCC)C(C)C (stereo not shown) [A1I18R3C18-3]  2.22E+04
11. CCCCCCCC/C=C\CCCCCCCC(=O)N(CCCN(CC)CC)C(C(=O)NCCCCCCCCCCCCCCCCCC)C(C)C (stereo not shown) [A1I18R3C18-1]  9.29E+03
12. CCCCCCCCCCCCCCCCCCNC(=O)C(C(C)C)N(CCN(C)C)C(=O)CCCCCCCCCCCCCCCCC (stereo not shown) [A1I18R1C18]  6.37E+03
13. CCCCCCCCCCCCCCCCCCNC(=O)C(C(C)C)N(CCCN(CC)CC)C(=O)CCCCCCCCCCCCCCCCC (stereo not shown) [A1I18R3C18]  3.91E+03

Same assay, conditions: mRNA-loaded nanoparticles, compounds of Example 2; intravenous (tail vein), 5 μg Luciferase-mRNA, 6 hours

In order of rising Bioluminescence intensity:
1. CCCCCCCCCCCCCCCCCC(=O)N(CCN1CCCCCC1)C(C(=O)NCCN(C)CCNC(=O)C(C(C)C)N(CCN1CCCCCC1)C(=O)CCCCCCCCCCCCCCCCC)C(C)C (stereo not shown) [A1I4R13C18]  5.76E+02
2. CCCCCCCC/C=C\CCCCCCCC(=O)N(CCCN(C)C)C(C(=O)NCCN(C)CCNC(=O)C(C(C)C)N(CCCN(C)C)C(=O)CCCCCCC/C=C\CCCCCCCC)C(C)C (stereo not shown) [A1I4R2C18-1]  8.80E+02

In order of rising “Fluorescence intensity of spleen” value:
1. CCCCCCSSCCC(=O)N(CCO)C(C(=O)NCCN(C)CCNC(=O)C(C(C)C)N(CCO)C(=O)CCSSCCCCCC)C(C)C (stereo not shown) [A1I4R22S11]  1.00E+03
2. CCCCCCCC/C=C\CCCCCCCC(=O)N(CCCN(C)C)C(C(=O)NCCN(C)CCNC(=O)C(C(CC)CCCC)N(CCCN(C)C)C(=O)CCCCCCC/C=C\CCCCCCCC)C(CC)CCCC (stereo not shown) [A4I4R2C18-1]  1.13E+03
3. CCCCCCCC/C=C\CCCCCCCC(=O)N(CCN1CCCCCC1)C(C(=O)NCCN(C)CCNC(=O)C(C(CC)CCCC)N(CCN1CCCCCC1)C(=O)CCCCCCC/C=C\CCCCCCCC)C(CC)CCCC (stereo not shown) [A4I4R13C18-1]  1.59E+03
4. CCCCCCCCCCCCCCCCCC(=O)N(CCCN(C)C)C(C(=O)NCCN(C)CCNC(=O)C(C(CC)CCCC)N(CCCN(C)C)C(=O)CCCCCCCCCCCCCCCCC)C(CC)CCCC (stereo not shown) [A4I4R2C18]  2.24E+03
5. CCCCCCCCCCCCCC(=O)N(CCO)C(C(=O)NCCN(C)CCNC(=O)C(C(C)C)N(CCO)C(=O)CCCCCCCCCCCCC)C(C)C (stereo not shown) [A1I4R22C14]  2.30E+03
6. CCCCCCCCCCCCCCCC(=O)N(CCO)C(C(=O)NCCN(C)CCNC(=O)C(C(C)C)N(CCO)C(=O)CCCCCCCCCCCCCCC)C(C)C (stereo not shown) [A1I4R22C16]  2.30E+03
7. CCCCCCCC/C=C\CCCCCCCC(=O)N(CCN1CCCCCC1)C(C(=O)NCCN(C)CCNC(=O)C(C(C)C)N(CCN1CCCCCC1)C(=O)CCCCCCC/C=C\CCCCCCCC)C(C)C (stereo not shown) [A1I4R13C18-1]  2.67E+03
8. CCCCC/C=C\C/C=C\CCCCCCCC(=O)N(CCCN(C)C)C(C(=O)NCCN(C)CCNC(=O)C(C(C)C)N(CCCN(C)C)C(=O)CCCCCCC/C=C\C/C=C\CCCCC)C(C)C (stereo not shown) [A1I4R2C18-2]  3.18E+03
9. CCCCCCCCCCCC(=O)N(CCO)C(C(=O)NCCN(C)CCNC(=O)C(C(C)C)N(CCO)C(=O)CCCCCCCCCCC)C(C)C (stereo not shown) [A1I4R22C12]  3.90E+03
10. CCCCCCCCCCSSCCC(=O)N(CCO)C(C(=O)NCCN(C)CCNC(=O)C(C(C)C)N(CCO)C(=O)CCSSCCCCCCCCCC)C(C)C (stereo not shown) [A1I4R22S15]  4.10E+03
11. CCCCCCCCSSCCC(=O)N(CCO)C(C(=O)NCCN(C)CCNC(=O)C(C(C)C)N(CCO)C(=O)CCSSCCCCCCCC)C(C)C (stereo not shown) [A1I4R22S13]  5.90E+03
12. CCCCCCCCCCCCCCCCCC(=O)N(CCCN(C)C)C(C(=O)NCCN(C)CCNC(=O)C(C(C)C)N(CCCN(C)C)C(=O)CCCCCCCCCCCCCCCCC)C(C)C (stereo not shown) [A1I4R2C18]  1.79E+04
13. CCCCCCCCCCCCSSCCC(=O)N(CCO)C(C(=O)NCCN(C)CCNC(=O)C(C(C)C)N(CCO)C(=O)CCSSCCCCCCCCCCCC)C(C)C (stereo not shown) [A1I4R22S17]  1.80E+04
14. CCCCC/C=C\C/C=C\CCCCCCCC(=O)N(CCCN(C)C)C(C(=O)NCCN(C)CCNC(=O)C(C(CC)CCCC)N(CCCN(C)C)C(=O)CCCCCCC/C=C\C/C=C\CCCCC)C(CC)CCCC (stereo not shown) [A4I4R2C18-2]  1.86E+04
15. CCCCCCCCCCCCCCSSCCC(=O)N(CCO)C(C(=O)NCCN(C)CCNC(=O)C(C(C)C)N(CCO)C(=O)CCSSCCCCCCCCCCCCCC)C(C)C (stereo not shown) [A1I4R22S19]  2.50E+04
16. CCCCC/C=C\C/C=C\CCCCCCCC(=O)N(CCN1CCCCCC1)C(C(=O)NCCN(C)CCNC(=O)C(C(C)C)N(CCN1CCCCCC1)C(=O)CCCCCCC/C=C\C/C=C\CCCCC)C(C)C (stereo not shown) [A1I4R13C18-2]  2.85E+04
17. CCCCCCCCCCCCCCCCCC(=O)N(CCC)C(C(=O)NCCN(C)CCNC(=O)C(C(C)C)N(CCC)C(=O)CCCCCCCCCCCCCCCCC)C(C)C (stereo not shown) [A1I4R21C18]  3.46E+04
18. CCCCCCCCCCCCCCCCCC(=O)N(CCO)C(C(=O)NCCN(C)CCNC(=O)C(C(C)C)N(CCO)C(=O)CCCCCCCCCCCCCCCCC)C(C)C (stereo not shown) [A1I4R22C18]  1.10E+05

Same assay, conditions: mRNA-loaded nanoparticles, compounds of Example 3; intravenous (tail vein), 5 μg Luciferase-mRNA, 6 hours

In order of falling “Fluorescence intensity of spleen” value:
1. CCCCCCCCCCCCN(C(=O)CO)C(C(=O)NCCN(CCNC(=O)C(C(C)C)N(CCCCCCCCCCCC)C(=O)CO)CCNC(=O)C(C(C)C)N(CCCCCCCCCCCC)C(=O)CO)C(C)C (stereo not shown) [A1I5R50C21]  3.60E+06
2. CCCCCCCCCCCC(=O)N(CCO)C(C(=O)NCCN(CCNC(=O)C(C(C)C)N(CCO)C(=O)CCCCCCCCCCC)CCNC(=O)C(C(C)C)N(CCO)C(=O)CCCCCCCCCCC)C(C)C (stereo not shown) [A1I5R22C12]  2.96E+06
3. CCCCCCCCCCCCCCSSCCC(=O)N(CCO)C(C(=O)NCCN(CCNC(=O)C(C(C)C)N(CCO)C(=O)CCSSCCCCCCCCCCCCCC)CCNC(=O)C(C(C)C)N(CCO)C(=O)CCSSCCCCCCCCCCCCCC)C(C)C (stereo not shown) [A1I5R22S19]  1.80E+06
4. CCCCC/C=C\C/C=C\CCCCCCCC(=O)N(CCO)C(C(=O)NCCN(CCNC(=O)C(C(C)C)N(CCO)C(=O)CCCCCCC/C=C\C/C=C\CCCCC)CCNC(=O)C(C(C)C)N(CCO)C(=O)CCCCCCC/C=C\C/C=C\CCCCC)C(C)C (stereo not shown) [A1I5R22C18-2]  6.90E+05
5. CCCCCCCCCCCCSSCCC(=O)N(CCO)C(C(=O)NCCN(CCNC(=O)C(C(C)C)N(CCO)C(=O)CCSSCCCCCCCCCCCC)CCNC(=O)C(C(C)C)N(CCO)C(=O)CCSSCCCCCCCCCCCC)C(C)C (stereo not shown) [A1I5R22S17]  6.40E+05
6. CCCCCCCCCCCCCCCC(=O)N(CCO)C(C(=O)NCCN(CCNC(=O)C(C(C)C)N(CCO)C(=O)CCCCCCCCCCCCCCC)CCNC(=O)C(C(C)C)N(CCO)C(=O)CCCCCCCCCCCCCCC)C(C)C (stereo not shown) [A1I5R22C16]  4.10E+05
7. CCCCCCCCCC(=O)N(CCO)C(C(=O)NCCN(CCNC(=O)C(C(C)C)N(CCO)C(=O)CCCCCCCCC)CCNC(=O)C(C(C)C)N(CCO)C(=O)CCCCCCCCC)C(C)C (stereo not shown) [A1I5R22C10]  3.00E+05
8. CCCCCCCC(=O)N(CCO)C(C(=O)NCCN(CCNC(=O)C(C(C)C)N(CCO)C(=O)CCCCCCC)CCNC(=O)C(C(C)C)N(CCO)C(=O)CCCCCCC)C(C)C (stereo not shown) [A1I5R22C8]  1.50E+05
9. CCCCCCSSCCC(=O)N(CCO)C(C(=O)NCCN(CCNC(=O)C(C(C)C)N(CCO)C(=O)CCSSCCCCCC)CCNC(=O)C(C(C)C)N(CCO)C(=O)CCSSCCCCCC)C(C)C (stereo not shown) [A1I5R22S11]  1.30E+05
10. CCCCCCCCCCCCCCCCCC(=O)N(CCO)C(C(=O)NCCN(CCNC(=O)C(C(C)C)N(CCO)C(=O)CCCCCCCCCCCCCCCCC)CCNC(=O)C(C(C)C)N(CCO)C(=O)CCCCCCCCCCCCCCCCC)C(C)C (stereo not shown) [A1I5R22C18]  1.10E+05
